Laboratory results as given in patent publication US6335331B1, “Pseudopolymorphic forms of 2-[2-[4-[Bis (4-fluorophenyl) methyl]-1-piperazinyl]ethoxy]acetic acid dihydrochloride” (UCB, S.A., priority 1997, dated 2002).

What was measured:
[1] = Storage stability of 1:1 (w/w) binary mixtures with D-sorbitol: sorbitol-efletirizine monoester by HPLC-UV; format: physicochemical; details: for sorbitol-efletirizine monoester, Relative % area: 1:1 (w/w) with D-sorbitol; for monoester formation (in words): pellet with D-sorbitol
Experimental: This is illustrated in the results of the following study, aimed at examining the stabilities of the two pseudopolymorphic forms in the presence of D-sorbitol during storage under stress temperature conditions, that is, in sealed vials at 40 or 60° C. In this study, HPLC analysis of several samples was performed: Form A, Form B, D-sorbitol and 1:1 (w/w) mixtures of Form A or Form B with D-sorbitol. Each sample was homogeneously ground and mixed. Aliquots (500 mg) were compressed into 13 mm diameter pellets at an applied load of 1 ton which a usual compression strength for pharmaceutical tablets. Each compact pellet was immediately ground into a fine powder, and an aliquot was stored in a tightly sealed glass vial at 40 or 60° C. Samples were analysed by HPLC after 0, 4, 16 and 24 weeks. p In a first series of analyses, HPLC/UV spectra were collected using a Kontron HPLC system type 300 fitted with a UV detector. The column used was Supercosil RP—ABZ 250×4.6 mm I.D. 5 μm particle size, and the mobile phase used consisted of an acetonitrile/water 25:75 (v/v) mixture, the water containing 770 mg/l ammonium acetate. Samples to be analysed were dissolved in acetonitrile/water 25:75 (v/v) at a concentration of 2 mg/ml, and 10 μl of these solutions were injected in the HPLC system. Upon comparing the HPLC spectra obtained for the individual components and for the binary mixtures, new peaks detected were considered indicative of an interaction with D-sorbitol. When present, these new peaks were quantified and further identified by HPLC/MS analysis, using a VG Quattro spectrometer coupled onto a Kontron HPLC system. In HPLC/MS, the new peaks observed for the binary mixtures were identified as a sorbitol-efletirizine monoester and dehydrated forms of a sorbitol-efletirizine monoester. The latter appeared after longer storage periods than the former. […] Relative quantification of monoester was performed by HPLC-UV analysis.

[2] = Storage stability of the pure forms under stress temperature, HPLC/UV; format: physicochemical; details: pure form, 40° or 60° C., 4, 16 or 24 weeks
Experimental: This is illustrated in the results of the following study, aimed at examining the stabilities of the two pseudopolymorphic forms in the presence of D-sorbitol during storage under stress temperature conditions, that is, in sealed vials at 40 or 60° C. In this study, HPLC analysis of several samples was performed: Form A, Form B, D-sorbitol and 1:1 (w/w) mixtures of Form A or Form B with D-sorbitol. Each sample was homogeneously ground and mixed. Aliquots (500 mg) were compressed into 13 mm diameter pellets at an applied load of 1 ton which a usual compression strength for pharmaceutical tablets. Each compact pellet was immediately ground into a fine powder, and an aliquot was stored in a tightly sealed glass vial at 40 or 60° C. Samples were analysed by HPLC after 0, 4, 16 and 24 weeks. p In a first series of analyses, HPLC/UV spectra were collected using a Kontron HPLC system type 300 fitted with a UV detector. The column used was Supercosil RP—ABZ 250×4.6 mm I.D. 5 μm particle size, and the mobile phase used consisted of an acetonitrile/water 25:75 (v/v) mixture, the water containing 770 mg/l ammonium acetate. Samples to be analysed were dissolved in acetonitrile/water 25:75 (v/v) at a concentration of 2 mg/ml, and 10 μl of these solutions were injected in the HPLC system. […] Pure D-sorbitol was not detected in HPLC/UV. […]

[3] = Intrinsic dissolution rate (static disc method, USP XXII apparatus No 2); format: physicochemical; details: 70:30 (w/w) with AVICEL PH102, dihydrochloride
Experimental: Drug bioavailability studies have shown that an intrinsic dissolution rate (IDR) lower than 0.1 mg/cm^2/min can often be predictive of a dissolution rate-limited absorption in humans. Thus, IDR is a predictive parameter of bioavailability. This parameter depends upon various physicochemical properties including, the chemical form (salt, solvate), the crystal form, the solubility and wettability. The determination of IDR was performed in the following way. The Form to be tested was homogeneously ground and mixed with microcrystalline cellulose AVICEL PH102 (dry binder which improves tableting properties). The substance:excipient mix ratio was 70:30 (w/w). Aliquots (500 mg) were compressed into pellets by compression until a final applied load of 10 tons in order to obtain a constant and known surface area of zero porosity. The dissolution experiments were carried out at 37° C. using 500 ml of aqueous media at three different pH values intended to cover the expected range of human gastrointestinal pH values, i.e. 1.2, 4.0 and 7.5. Uniform and reproducible haemodynamic conditions were obtained by carrying out the test with USP XXII apparatus N°2 (United States Pharmacopoeia, 1990) in which a paddle is used as stirring element (50 rpm) and the pellet assembly is placed at the bottom of the vessel (static disc method). Statistically assessed (p<0.05) linear portions of all replicate dissolution curves were selected for subsequent IDR calculation.

histamine H1-receptor = histamine H1-receptor (Homo sapiens, UniProt P35367); details: in vitro; cited from earlier work
[4] = Clinical pharmacology study in urticaria, atopic dermatitis and prurit; format: in vivo; details: clinical pharmacology study (to be published)
[5] = 40° C., 4 weeks, dihydrochloride
[6] = 40° C., 16 weeks, dihydrochloride
[7] = 40° C., 24 weeks, dihydrochloride
[8] = 60° C., 0 weeks, dihydrochloride
[9] = 60° C., 4 weeks, dihydrochloride
[10] = 60° C., 16 weeks, dihydrochloride
[11] = 60° C., 24 weeks, dihydrochloride
[12] = storage at 60° C., dihydrochloride

histamine H1-receptor, sequence (P35367 whole entry, species assumed): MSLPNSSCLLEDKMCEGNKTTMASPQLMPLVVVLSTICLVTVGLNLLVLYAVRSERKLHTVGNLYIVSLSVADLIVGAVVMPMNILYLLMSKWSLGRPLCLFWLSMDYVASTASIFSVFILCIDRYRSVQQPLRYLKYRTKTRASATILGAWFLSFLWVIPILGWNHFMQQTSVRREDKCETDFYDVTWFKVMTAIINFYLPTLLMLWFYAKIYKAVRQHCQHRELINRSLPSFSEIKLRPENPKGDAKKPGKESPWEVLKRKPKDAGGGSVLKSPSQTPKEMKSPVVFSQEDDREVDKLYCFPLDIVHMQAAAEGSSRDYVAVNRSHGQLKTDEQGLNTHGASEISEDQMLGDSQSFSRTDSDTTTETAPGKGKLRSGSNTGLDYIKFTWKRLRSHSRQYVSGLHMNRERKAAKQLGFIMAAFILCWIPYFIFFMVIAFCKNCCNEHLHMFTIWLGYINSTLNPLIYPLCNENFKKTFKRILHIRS

| SMILES | sorbitol-efletirizine monoester, Relative % area ([1]; 40° C., 0 weeks) [Relative % area] | sorbitol-efletirizine monoester, Relative % area [1, 5] [Relative % area] | sorbitol-efletirizine monoester, Relative % area [1, 6] [Relative % area] | sorbitol-efletirizine monoester, Relative % area [1, 7] [Relative % area] | sorbitol-efletirizine monoester, Relative % area [1, 8] [Relative % area] | sorbitol-efletirizine monoester, Relative % area [1, 9] [Relative % area] | sorbitol-efletirizine monoester, Relative % area [1, 10] [Relative % area] | sorbitol-efletirizine monoester, Relative % area [1, 11] [Relative % area] | monoester formation (in words) ([1]; storage at 40° C.) | monoester formation (in words) [1, 12] | modifications of the HPLC/UV spectrograms after storage [2] | Intrinsic dissolution rate ([3]; pH 1.2, 37° C.) [mg/cm^2/min] | Intrinsic dissolution rate ([3]; pH 4.0, 37° C.) [mg/cm^2/min] | Intrinsic dissolution rate ([3]; pH 7.5, 37° C.) [mg/cm^2/min] | affinity for H1-receptors (histamine H1-receptor) | selectivity for H1-receptors (histamine H1-receptor) | results in the treatment of urticaria, atopic dermatitis and prurit [4] |
| --- | --- | --- | --- | --- | --- | --- | --- | --- | --- | --- | --- | --- | --- | --- | --- | --- | --- |
| Cl.Cl.O=C(O)COCCN1CCN(C(c2ccc(F)cc2)c2ccc(F)cc2)CC1 [Form A, 2-[2-[4-[bis(4-fluorophenyl)methyl]-1-piperazinyl]ethoxy]acetic acid dihydrochloride] | 0 | 0.04 | 0.07 | 0.13 | 0.03 | 0.29 | 0.45 | 0.46 | quite low | quite low | no modifications of the spectrograms were observed | 5.04 ± 0.34 | 5.43 ± 0.32 | 4.52 ± 0.34 | – | – | – |
| Cl.Cl.O=C(O)COCCN1CCN(C(c2ccc(F)cc2)c2ccc(F)cc2)CC1 [Form B, 2-[2-[4-[bis(4-fluorophenyl)methyl]-1-piperazinyl]ethoxy]acetic acid dihydrochloride] | 0 | 0.13 | 0.16 | 0.23 | 0.04 | 0.87 | 2.69 | 2.95 | quite low | very significant | no modifications of the spectrograms were observed | 4.05 ± 0.64 | 3.58 ± 0.50 | 3.31 ± 0.04 | – | – | – |
| O=C(O)COCCN1CCN(C(c2ccc(F)cc2)c2ccc(F)cc2)CC1 [efletirizine, 2-[2-[4-[Bis(4-fluorophenyl)methyl]-1-piperazinyl]ethoxy]acetic acid] | – | – | – | – | – | – | – | – | – | – | – | – | – | – | high affinity | selectivity | unexpectedly good results |
